Laboratory results reported in US10351718B2, “Optical filter and imaging device” (AGC Inc., priority 2015, dated 2019).

Test: Absorption characteristic of the dye in dichloromethane
Format: physicochemical
Details: for λ80 (wavelength with 80% transmittance on shorter wavelength side of λmax) / λmax − λ80: dichloromethane, transmittance at λmax set to 10%; for εA (maximum absorption coefficient in a wavelength of 430 to 550 nm) / εB (maximum absorption coefficient in a wavelength of 670 to 730 nm) / εB/εA / λmax (maximum absorption wavelength): dissolved in dichloromethane
Description: The dyes obtained above were each dissolved in dichloromethane, and using an ultraviolet-visible spectrophotometer (made by Hitachi High Technologies Co., Ltd., U-4100 type), each spectral transmittance curve was measured, from which a maximum absorption wavelength λmax, a wavelength λ80 with which the transmittance becomes 80% on a shorter wavelength side than the maximum absorption wavelength with the transmittance at the maximum absorption wavelength set to 10%, the difference between the maximum absorption wavelength λmax and the wavelength λ80 (λmax−λ80), a maximum absorption coefficient εA in a wavelength of 430 to 550 nm, a maximum absorption coefficient εB in a wavelength of 670 to 730 nm, and a ratio of these (εB/εA) were calculated. Note that measurement of the dye (A9) was not performed because its solubility was low. Further, for each of the following spectral transmittance curves, an ultraviolet-visible spectrophotometer (made by Hitachi High Technologies Co., Ltd., U-4100 type) was used.

| λ80 (wavelength with 80% transmittance on shorter wavelength side of λmax) | λmax − λ80 | εA (maximum absorption coefficient in a wavelength of 430 to 550 nm) | εB (maximum absorption coefficient in a wavelength of 670 to 730 nm) | εB/εA | λmax (maximum absorption wavelength) | SMILES |
| --- | --- | --- | --- | --- | --- | --- |
| 649 nm | 50 nm | 0.0110 | 1 | 90.9 | 699 nm | Cc1ccccc1S(=O)(=O)Nc1cc2c(cc1C1=C([O-])C(=c3cc4c(cc3NS(=O)(=O)c3ccccc3C)=[N+](C(C)C)C(C)C4(C)C)C1=O)C(C)(C)C(C)N2C(C)C (stereo not drawn) [Dye A1-18] |
| 663 nm | 50 nm | 0.0124 | 1 | 80.6 | 713 nm | CCC(C)(C)N1c2cc(NS(=O)(=O)C(F)(F)C(F)(F)C(F)(F)C(F)(F)F)c(C3=C([O-])C(=c4cc5c(cc4NS(=O)(=O)C(F)(F)C(F)(F)C(F)(F)C(F)(F)F)=[N+](C(C)(C)CC)C(C)C5(C)C)C3=O)cc2C(C)(C)C1C (stereo not drawn) [Dye A1-23] |
| 633 nm | 60 nm | 0.0147 | 1 | 68.0 | 693 nm | CCCCCc1ccc(S(=O)(=O)Nc2cc3c(cc2C2=C([O-])C(=c4cc5c(cc4NS(=O)(=O)c4ccc(CCCCC)cc4)=[N+](C)C(C)C5(C)C)C2=O)C(C)(C)C(C)N3C)cc1 (stereo not drawn) [Dye A1-7] |
| 647 nm | 52 nm | 0.0121 | 1 | 82.6 | 699 nm | CCCc1ccc(S(=O)(=O)Nc2cc3c(cc2C2=C([O-])C(=c4cc5c(cc4NS(=O)(=O)c4ccc(CCC)cc4)=[N+](C(C)C)C(C)C5(C)C)C2=O)C(C)(C)C(C)N3C(C)C)cc1 (stereo not drawn) [Dye A1-14] |
| 651 nm | 52 nm | 0.0100 | 1 | 100 | 703 nm | CC(C)N1c2cc(N3S(=O)(=O)C(F)(F)C(F)(F)S3(=O)=O)c(C3=C([O-])C(=c4cc5c(cc4N4S(=O)(=O)C(F)(F)C(F)(F)S4(=O)=O)=[N+](C(C)C)C(C)C5(C)C)C3=O)cc2C(C)(C)C1C (stereo not drawn) [Dye A1-20] |
| 648 nm | 51 nm | 0.0126 | 1 | 79.4 | 699 nm | CCCCCc1ccc(S(=O)(=O)Nc2cc3c(cc2C2=C([O-])C(=c4cc5c(cc4NS(=O)(=O)c4ccc(CCCCC)cc4)=[N+](C(C)C)C(C)C5(C)C)C2=O)C(C)(C)C(C)N3C(C)C)cc1 (stereo not drawn) [Dye A1-19] |
| 633 nm | 62 nm | 0.0104 | 1 | 96.2 | 695 nm | CC1N(C)c2cc(NS(=O)(=O)c3ccccc3C(F)(F)F)c(C3=C([O-])C(=c4cc5c(cc4NS(=O)(=O)c4ccccc4C(F)(F)F)=[N+](C)C(C)C5(C)C)C3=O)cc2C1(C)C (stereo not drawn) [Dye A1-4] |
| 645 nm | 53 nm | 0.0113 | 1 | 88.5 | 698 nm | CCCS(=O)(=O)Nc1cc2c(cc1C1=C([O-])C(=c3cc4c(cc3NS(=O)(=O)CCC)=[N+](C(C)C)C(C)C4(C)C)C1=O)C(C)(C)C(C)N2C(C)C (stereo not drawn) [Dye A1-13] |
| 660 nm | 51 nm | 0.0122 | 1 | 82.0 | 711 nm | CCC(C)(C)N1c2cc(NS(=O)(=O)C(F)(F)F)c(C3=C([O-])C(=c4cc5c(cc4NS(=O)(=O)C(F)(F)F)=[N+](C(C)(C)CC)C(C)C5(C)C)C3=O)cc2C(C)(C)C1C (stereo not drawn) [Dye A1-22] |
| 653 nm | 52 nm | 0.0081 | 1 | 123 | 705 nm | CC(C)N1c2cc(NS(=O)(=O)C(F)(F)C(F)(F)C(F)(F)C(F)(F)F)c(C3=C([O-])C(=c4cc5c(cc4NS(=O)(=O)C(F)(F)C(F)(F)C(F)(F)C(F)(F)F)=[N+](C(C)C)C(C)C5(C)C)C3=O)cc2C(C)(C)C1C (stereo not drawn) [Dye A1-17] |
| 653 nm | 51 nm | 0.0130 | 1 | 77.6 | 704 nm | CCCCCCCCS(=O)(=O)Nc1cc2c(cc1C1=C([O-])C(=c3cc4c(cc3NS(=O)(=O)CCCCCCCC)=[N+](C(C)C)C(C)(CC)C4(C)C)C1=O)C(C)(C)C(C)(CC)N2C(C)C (stereo not drawn) [Dye A1-25] |
| 633 nm | 60 nm | 0.0139 | 1 | 71.9 | 693 nm | CCCc1ccc(S(=O)(=O)Nc2cc3c(cc2C2=C([O-])C(=c4cc5c(cc4NS(=O)(=O)c4ccc(CCC)cc4)=[N+](C)C(C)C5(C)C)C2=O)C(C)(C)C(C)N3C)cc1 (stereo not drawn) [Dye A1-6] |
| 648 nm | 52 nm | 0.0116 | 1 | 86.2 | 700 nm | Cc1ccc(S(=O)(=O)Nc2cc3c(cc2C2=C([O-])C(=c4cc5c(cc4NS(=O)(=O)c4ccc(C)cc4)=[N+](C(C)C)C(C)C5(C)C)C2=O)C(C)(C)C(C)N3C(C)C)cc1 (stereo not drawn) [Dye A1-12] |
| 654 nm | 53 nm | 0.0140 | 1 | 71.6 | 707 nm | CCCCCCCCS(=O)(=O)Nc1cc2c(cc1C1=C([O-])C(=c3cc4c(cc3NS(=O)(=O)CCCCCCCC)=[N+](C(C)C)C(C)(C(C)C)C4(C)C)C1=O)C(C)(C)C(C)(C(C)C)N2C(C)C (stereo not drawn) [Dye A1-26] |
| 651 nm | 49 nm | 0.0110 | 1 | 89.7 | 700 nm | CCCCCCCCS(=O)(=O)Nc1cc2c(cc1C1=C([O-])C(=c3cc4c(cc3NS(=O)(=O)CCCCCCCC)=[N+](C(C)C)C(C)(C)C4(C)C)C1=O)C(C)(C)C(C)(C)N2C(C)C [Dye A1-24] |
